In PubChem BioAssay (NCI):
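How tested: cells in 96-well plates exposed to compound for 48 hours at five concentrations. GI50 is the concentration that inhibits growth by half. At the TGI there is no net growth.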

Assays:
Assay in all cases: DTP human tumour cell line panel, 48 h
786-0 renal = tested on: 786-0 renal
A498 renal = tested on: A498 renal
A549 NSCLC = tested on: A549 NSCLC
ACHN renal = tested on: ACHN renal
BT-549 breast = tested on: BT-549 breast
CAKI-1 renal = tested on: CAKI-1 renal
CCRF-CEM leukemia = tested on: CCRF-CEM leukemia
COLO 205 colon = tested on: COLO 205 colon
DU-145 prostate = tested on: DU-145 prostate
EKVX NSCLC = tested on: EKVX NSCLC
HCC-2998 colon = tested on: HCC-2998 colon
HCT-116 colon = tested on: HCT-116 colon
HCT-15 colon = tested on: HCT-15 colon
HL-60(TB) leukemia = tested on: HL-60(TB) leukemia
HOP-62 NSCLC = tested on: HOP-62 NSCLC
HOP-92 NSCLC = tested on: HOP-92 NSCLC
HS 578T breast = tested on: HS 578T breast
HT29 colon = tested on: HT29 colon
IGROV1 ovarian = tested on: IGROV1 ovarian
K-562 leukemia = tested on: K-562 leukemia
KM12 colon = tested on: KM12 colon
LOX IMVI melanoma = tested on: LOX IMVI melanoma
M14 melanoma = tested on: M14 melanoma
MALME-3M melanoma = tested on: MALME-3M melanoma
MCF7 breast = tested on: MCF7 breast
MDA-MB-231 breast = tested on: MDA-MB-231 breast
MDA-MB-435 = tested on: MDA-MB-435
MOLT-4 leukemia = tested on: MOLT-4 leukemia
NCI-H226 lung = tested on: NCI-H226 lung
NCI-H23 lung = tested on: NCI-H23 lung
NCI-H460 lung = tested on: NCI-H460 lung
NCI-H522 lung = tested on: NCI-H522 lung
NCI/ADR-RES ovarian = tested on: NCI/ADR-RES ovarian
OVCAR-3 ovarian = tested on: OVCAR-3 ovarian
OVCAR-4 ovarian = tested on: OVCAR-4 ovarian
OVCAR-5 ovarian = tested on: OVCAR-5 ovarian
OVCAR-8 ovarian = tested on: OVCAR-8 ovarian
PC-3 prostate = tested on: PC-3 prostate
RPMI-8226 leukemia = tested on: RPMI-8226 leukemia
RXF 393 renal = tested on: RXF 393 renal
SF-268 CNS = tested on: SF-268 CNS
SF-295 CNS = tested on: SF-295 CNS
SF-539 CNS = tested on: SF-539 CNS
SK-MEL-28 melanoma = tested on: SK-MEL-28 melanoma
SK-MEL-5 melanoma = tested on: SK-MEL-5 melanoma
SK-OV-3 ovarian = tested on: SK-OV-3 ovarian
SN12C renal = tested on: SN12C renal
SNB-19 CNS = tested on: SNB-19 CNS
SNB-75 CNS = tested on: SNB-75 CNS
SR leukemia = tested on: SR leukemia
SW-620 colon = tested on: SW-620 colon
T-47D breast = tested on: T-47D breast
TK-10 renal = tested on: TK-10 renal
U251 CNS = tested on: U251 CNS
UACC-257 melanoma = tested on: UACC-257 melanoma
UACC-62 melanoma = tested on: UACC-62 melanoma
UO-31 renal = tested on: UO-31 renal

`COc1ccc(C2C3=C(COC3=O)N(CCO)c3cc4c(cc32)CCC4)cc1OC` (stereo unspecified) gave a GI50 (786-0 renal) of 5560 nM, a TGI (786-0 renal) of over 50000 nM and a GI50 (A498 renal) of 242 nM. It also gave a TGI (A498 renal) of over 20000 nM, a GI50 (A549 NSCLC) of 1130 nM and a TGI (A549 NSCLC) of over 50000 nM. It also gave a GI50 (ACHN renal) of 4320 nM, a TGI (ACHN renal) of over 50000 nM and a GI50 (BT-549 breast) of 3420 nM. It also gave a TGI (BT-549 breast) of over 50000 nM, a GI50 (CAKI-1 renal) of 858 nM and a TGI (CAKI-1 renal) of over 50000 nM. The GI50 (CCRF-CEM leukemia) was 1730 nM, the TGI (CCRF-CEM leukemia) was over 50000 nM and the GI50 (COLO 205 colon) was 533 nM. It also gave a TGI (COLO 205 colon) of 7710 nM, a GI50 (DU-145 prostate) of 574 nM and a TGI (DU-145 prostate) of 2130 nM. For the same molecule, the GI50 (EKVX NSCLC) was 2950 nM, the TGI (EKVX NSCLC) was over 50000 nM and the GI50 (HCC-2998 colon) was 945 nM. It also gave a TGI (HCC-2998 colon) of over 16300 nM, a GI50 (HCT-116 colon) of 524 nM and a TGI (HCT-116 colon) of over 50000 nM. It also gave a GI50 (HCT-15 colon) of 1650 nM, a TGI (HCT-15 colon) of over 50000 nM and a GI50 (HL-60(TB) leukemia) of 328 nM. It also gave a TGI (HL-60(TB) leukemia) of over 10500 nM, a GI50 (HOP-62 NSCLC) of 1080 nM and a TGI (HOP-62 NSCLC) of over 50000 nM. The GI50 (HOP-92 NSCLC) was over 50000 nM, the TGI (HOP-92 NSCLC) was over 50000 nM and the GI50 (HS 578T breast) was 454 nM. For the same molecule, the TGI (HS 578T breast) was over 15000 nM, the GI50 (HT29 colon) was 620 nM and the TGI (HT29 colon) was over 10300 nM. It also gave a GI50 (IGROV1 ovarian) of 274 nM, a TGI (IGROV1 ovarian) of over 42700 nM and a GI50 (K-562 leukemia) of 470 nM. It also gave a TGI (K-562 leukemia) of over 50000 nM, a GI50 (KM12 colon) of 297 nM and a TGI (KM12 colon) of over 50000 nM. For the same molecule, the GI50 (LOX IMVI melanoma) was 1530 nM, the TGI (LOX IMVI melanoma) was over 50000 nM and the GI50 (M14 melanoma) was 542 nM. The TGI (M14 melanoma) was over 11800 nM, the GI50 (MALME-3M melanoma) was 291 nM and the TGI (MALME-3M melanoma) was over 50000 nM. The GI50 (MCF7 breast) was 176 nM, the TGI (MCF7 breast) was over 50000 nM and the GI50 (MDA-MB-231 breast) was 2520 nM. For the same molecule, the TGI (MDA-MB-231 breast) was over 50000 nM, the GI50 (MDA-MB-435) was 132 nM and the TGI (MDA-MB-435) was 448 nM. It also gave a GI50 (MOLT-4 leukemia) of 2100 nM, a TGI (MOLT-4 leukemia) of over 50000 nM and a GI50 (NCI-H226 lung) of over 10700 nM. For the same molecule, the TGI (NCI-H226 lung) was over 50000 nM, the GI50 (NCI-H23 lung) was 1360 nM and the TGI (NCI-H23 lung) was over 50000 nM. The GI50 (NCI-H460 lung) was 336 nM, the TGI (NCI-H460 lung) was over 29500 nM and the GI50 (NCI-H522 lung) was 514 nM. For the same molecule, the GI50 (NCI/ADR-RES ovarian) was 2520 nM, the TGI (NCI/ADR-RES ovarian) was over 36400 nM and the GI50 (OVCAR-3 ovarian) was 127 nM. The TGI (OVCAR-3 ovarian) was 332 nM, the GI50 (OVCAR-4 ovarian) was 901 nM and the TGI (OVCAR-4 ovarian) was over 50000 nM. It also gave a GI50 (OVCAR-5 ovarian) of 3590 nM, a TGI (OVCAR-5 ovarian) of over 50000 nM and a GI50 (OVCAR-8 ovarian) of 1740 nM. For the same molecule, the TGI (OVCAR-8 ovarian) was over 50000 nM, the GI50 (PC-3 prostate) was 524 nM and the TGI (PC-3 prostate) was over 50000 nM. For the same molecule, the GI50 (RPMI-8226 leukemia) was 2640 nM, the TGI (RPMI-8226 leukemia) was over 50000 nM and the GI50 (RXF 393 renal) was 207 nM. The GI50 (SF-268 CNS) was 1780 nM, the TGI (SF-268 CNS) was over 50000 nM and the GI50 (SF-295 CNS) was 171 nM. The TGI (SF-295 CNS) was 1310 nM, the GI50 (SF-539 CNS) was 496 nM and the TGI (SF-539 CNS) was 6430 nM. The GI50 (SK-MEL-28 melanoma) was 697 nM, the TGI (SK-MEL-28 melanoma) was over 50000 nM and the GI50 (SK-MEL-5 melanoma) was 246 nM. For the same molecule, the TGI (SK-MEL-5 melanoma) was over 50000 nM, the GI50 (SK-OV-3 ovarian) was 746 nM and the TGI (SK-OV-3 ovarian) was over 50000 nM. The GI50 (SN12C renal) was 3410 nM, the TGI (SN12C renal) was over 50000 nM and the GI50 (SNB-19 CNS) was 2160 nM. The TGI (SNB-19 CNS) was over 50000 nM, the GI50 (SNB-75 CNS) was 253 nM and the TGI (SNB-75 CNS) was 2480 nM. The GI50 (SR leukemia) was 253 nM, the TGI (SR leukemia) was over 50000 nM and the GI50 (SW-620 colon) was 328 nM. For the same molecule, the TGI (SW-620 colon) was over 50000 nM, the GI50 (T-47D breast) was 797 nM and the TGI (T-47D breast) was over 50000 nM. For the same molecule, the TGI (TK-10 renal) was over 50000 nM, the GI50 (U251 CNS) was 1150 nM and the TGI (U251 CNS) was over 50000 nM. It also gave a GI50 (UACC-257 melanoma) of over 50000 nM, a TGI (UACC-257 melanoma) of over 50000 nM and a GI50 (UACC-62 melanoma) of 318 nM. It also gave a TGI (UACC-62 melanoma) of over 50000 nM, a GI50 (UO-31 renal) of 1130 nM and a TGI (UO-31 renal) of over 50000 nM.
